Results from patent US5994629A, “Positive selection” (priority 1991, dated 1999).
Values after ≈ are worked out from the molar mass of the structure shown. Where a name gives a salt, the structure may show the parent alone.

How the values were obtained:
Solubility = format: physicochemical; conditions: for solubility: organic solvent or mixture
[1] = target: β-glucuronidase from E. coli (Escherichia coli, UniProt P05804); experiment: Hydrolysis by β-glucuronidase (GUS), HPLC/TLC; format: biochemical; conditions: 37° C.
Protocol: […] […] This confirms the identity of the product as a conjugate of BA and β-D-glucuronic acid.
[…] The presence of hydrolysis products is then determined using HPLC and TLC.

[2] = tested on: leaf discs of tobacco without (GUS-) introduced β-glucuronidase genes; format: cell-based, Nicotiana tabacum 'Wisconsin 38'; conditions: test compounds at several concentrations up to 250 μM in MSO
[3] = tested on: leaf discs of tobacco with (GUS+) introduced β-glucuronidase genes; format: cell-based, Nicotiana tabacum 'Wisconsin 38'; conditions: test compounds at several concentrations up to 250 μM in MSO

Sequence of β-glucuronidase from E. coli (P05804 whole entry, looked up): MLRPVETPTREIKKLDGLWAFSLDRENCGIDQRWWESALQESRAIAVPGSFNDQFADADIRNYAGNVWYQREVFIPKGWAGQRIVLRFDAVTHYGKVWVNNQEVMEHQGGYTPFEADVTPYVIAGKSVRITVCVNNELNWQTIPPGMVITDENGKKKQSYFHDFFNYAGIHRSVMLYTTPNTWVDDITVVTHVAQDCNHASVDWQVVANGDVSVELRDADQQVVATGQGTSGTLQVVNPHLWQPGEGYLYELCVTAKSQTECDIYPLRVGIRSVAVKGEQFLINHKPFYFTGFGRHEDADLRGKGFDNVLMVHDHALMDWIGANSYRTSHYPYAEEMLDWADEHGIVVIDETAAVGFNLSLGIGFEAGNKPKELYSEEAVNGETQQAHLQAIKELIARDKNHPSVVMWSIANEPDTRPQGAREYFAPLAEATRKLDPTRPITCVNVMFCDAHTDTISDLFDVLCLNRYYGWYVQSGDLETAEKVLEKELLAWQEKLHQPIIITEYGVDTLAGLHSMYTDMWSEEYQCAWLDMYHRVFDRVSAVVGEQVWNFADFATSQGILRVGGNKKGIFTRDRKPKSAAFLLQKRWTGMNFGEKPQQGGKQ

solubility (Solubility; 50% aqueous methanol containing 25% acetic acid) [µg/mL]	solubility in words (Solubility; water or alcohol)	SMILES	solubility (Solubility; aqueous buffer and 50% alcohol, aqueous buffer, pH 7, and 50% aqueous alcohol) [µg/mL]	conversion to o-coumaric acid by GUS ([1]; 5 mg in 1 ml, 1000 units Sigma Type G5897, 12 hours, TLC) [%]	Shoot formation, GUS- [2]	Shoot formation, GUS+ [3]	solubility in words (Solubility; 50% aqueous alcohol)	partial removal of the glucuronide by GUS ([1]; 2500 Fishman units, 48 hours, HPLC) [%]
		O=C(O)C=Cc1ccccc1O[C@@H]1O[C@H](C(=O)O)[C@@H](O)[C@H](O)[C@H]1O [CouGN, 2-hydroxycinnamyl-β-D-glucopyranuronic acid]	5000 (≈ 14.7 mM)	93.4				
2400 (≈ 5.99 mM)	only sparingly soluble	NC(=O)[C@H]1O[C@@H](n2cnc(NCc3ccccc3)c3ncnc2-3)[C@H](O)[C@@H](O)[C@@H]1O [BA3GNamide, 3-β-D-glucupyranuronamido-6-benzylaminopurine]			+ ("+" means shoot formation at concentrations below 250 μM)	+ ("+" means shoot formation at concentrations below 250 μM)		
		CC(C)=CCNc1nc(S[C@@H]2O[C@H](C(=O)O)[C@@H](O)[C@H](O)[C@H]2O)nc2[nH]cnc12 [IP2SGN sodium salt, 6-(3-methyl-but-2-enylamino)purine-2-yl-1-thio-β-D-glucopyranuronic acid, sodium salt]			+ ("+" means shoot formation at concentrations below 250 μM)	+ ("+" means shoot formation at concentrations below 250 μM)	sparingly soluble	65
